Common to all, as to assay type: in vivo
In assay [1] the test system is Alopecurus myosuroides (black grass). Nature of the assay: Growth room pot test, post-emergence phytotoxicity on ALOMY. On the procedure:
(§1) A simple mathematical method to test the additivity of a pesticide combination is based on the equation: [formula]
(§2) in which X and Y represent the percentage-of-inhibition of growth by toxicant A and B, respectively. E is the expected percentage-of-inhibition of growth by the mixture A and B. In order to show synergism, the actual efficacy should be higher than E.
(§3) The compounds were tested alone and in admixture with a co-herbicide, which was also tested alone, against the following weeds:
(§4) In the test procedure three replicate pots per treatment were randomly arranged through a growth room. The plants were treated about three weeks after planting and then submitted to a photoperiod of 14 hours per day; the temperature was 15 degrees Centigrade during the day and 9 degrees at night. All applications of test formulations were performed using a MARDRIVE sprayer, simulating as far as possible field conditions. The pressure was controlled at 2 bar and the water volume was 300 l/ha. The weed plants were at a true leaf stage between 0 to 6 leaves.
(§5) The results in the tables and figures are presented as average values of three replicates.

In the next assay the test system is Avena fatua (wild oats). Put plainly: Growth room pot test, post-emergence phytotoxicity on AVEFA. On the procedure: as §1, §2, §3, §4, §5
Assay [2] has as its system Lamium purpureum (red dead nettle). Nature of the assay: Growth room pot test, post-emergence phytotoxicity on LAMPU. On the procedure:
as §1, §2
(§6) are formulated as suspension concentrates (SC) containing about 42% by weight of active ingredient.
as §3, §4
(§7) Assessment of phytotoxicity was made by comparison with untreated control pots on an arbitrary scale from 0 to 100%, where 0 represents no visible effect and 100 represents a kill of all plants. The results in the tables and figures are presented as average values of three replicates.

Assay [3] concerns Stellaria media (common chickweed). Put plainly: Growth room pot test, post-emergence phytotoxicity on STEME. On the procedure: as §1, §2, §3, §4, §5
The test system of assay [4] is Veronica persica (common field speedwell). Put plainly: Growth room pot test, post-emergence phytotoxicity on VERPE. On the procedure: as §1, §2, §6, §3, §4, §7
Assay [5] has as its system Galium aparine (bedstraw cleavers). Put plainly: Growth room pot test, post-emergence phytotoxicity on GALAP. On the procedure:
as §1, §2, §6, §3, §4, §7

The test system of assay [6] is Matricaria chamomilla (mayweed). Nature of the assay: Growth room pot test, post-emergence phytotoxicity on MATCH. On the procedure: as §1, §2, §3, §4, §5
Another assay relates to weeds. Nature of the assay: Growth room pot test, overall synergy on the weeds. The conditions noted are these: mixtures of sulfonylurea A or B with co-herbicide.
Excerpt: It is generally admitted that, in case of synergism, the effectiveness of the mixture cannot be computed from that of the individual ingredients. Synergism is generally defined as the simultaneous action of two or more compounds in which the total response of an organism to the pesticide combination is greater that the sum of the individual components.
as §1, §2, §3
In the test procedure three replicate pots per treatment were randomly arranged through a growth room. The plants were treated about three weeks after planting and then submitted to a photoperiod of 14 hours per day; the temperature was 15 degrees Centigrade during the day and 9 degrees at night. All applications of test formulations were performed using a MARDRIVE sprayer, simulating as far as possible field conditions. The pressure was controlled at 2 bar and the water volume was 300 l/ha. The weed plants were at a true leaf stage between 0 to 6 leaves. […]

“And” between values parts separate entries of the source, which are not always exact repeats. Identical values can stand only once.

As to `Cn1c(-c2ccccc2)cc(-c2ccccc2)[n+]1C` [Difenzoquat, difenzoquat], the “Phytotoxicity of herbicide alone” value is given as 5% in assay [1] (600 g/ha); 60% with Avena fatua (wild oats) (600 g/ha); 5% in assay [2] (600 g/ha); 0% in assay [3] (400 g/ha); 0% in assay [4] (200 g/ha).

`Nc1c(Cl)c(F)nc(OCC(=O)O)c1Cl` [Fluroxypyr, fluroxypyr]: the “Phytotoxicity of herbicide alone” value is 0% in assay [1] (100 g/ha); 0% in the assay on Avena fatua (wild oats) (100 g/ha); 70% in assay [5] (50 g/ha); 50% in assay [2] (1000 g/ha); 20% in assay [6] (100 g/ha); 60% in assay [3] (100 g/ha). The “Phytotoxicity of herbicide alone” value in assay [4] (100 g/ha) worked out at 85%.

Take `CC(C)c1ccc(NC(=O)N(C)C)cc1` [Isoproturon, isoproturon]: the “Phytotoxicity of herbicide alone” value in assay [1] (1000 g/ha) was 0%; in the assay on Avena fatua (wild oats) (1000 g/ha), 0%; in assay [5] (500 g/ha), 0%; in assay [2] (500 g/ha), 25%; in assay [3] (500 g/ha), 0%; in assay [4] (500 g/ha), 0%.

Turning to `CCC(CC)Nc1c([N+](=O)[O-])cc(C)c(C)c1[N+](=O)[O-]` [Pendimethalin, pendimethalin], the “Phytotoxicity of herbicide alone” value stood at 10% in assay [1] (800 g/ha); 0% with Avena fatua (wild oats) (1200 g/ha); 60% in assay [5] (1200 g/ha); 70% in assay [2] (400 g/ha); 50% in assay [6] (800 g/ha); 0% in assay [3] (800 g/ha). Further, the “Phytotoxicity of herbicide alone” value in assay [4] (1200 g/ha) is on record as 90%.

`CCS(=O)(=O)c1nc2ccccn2c1S(=O)(=O)NC(=O)Nc1nc(OC)cc(OC)n1` [SU - A]: the “Phytotoxicity of herbicide alone” value is 10% and 0% in assay [1] (10 g/ha); 0% in assay [1] (20 g/ha); 0% with Avena fatua (wild oats) (10 g/ha); 0% and 10% in the assay with Avena fatua (wild oats) (30 g/ha); 60% in assay [5] (20 g/ha); 70% and 40% in assay [6] (10 g/ha). In addition, the “Phytotoxicity of herbicide alone” value in assay [6] (20 g/ha) is 90% and 45%; in assay [6] (30 g/ha), 70%; in assay [3] (10 g/ha), 70% and 50%; in assay [3] (20 g/ha), 60%; in assay [3] (30 g/ha), 65% and 55%; in assay [4] (10 g/ha), 30% and 20%. In addition, in assay [4] (20 g/ha), the “Phytotoxicity of herbicide alone” value is 70% and 50%.

Take `CCS(=O)(=O)c1nc2sccn2c1S(=O)(=O)NC(=O)Nc1nc(OC)cc(OC)n1` [SU - B]: the “Phytotoxicity of herbicide alone” value is 10% in assay [1] (20 g/ha); 20% and 40% in assay [1] (30 g/ha); 0% and 5% in the assay on Avena fatua (wild oats) (20 g/ha); 0% with Avena fatua (wild oats) (30 g/ha); 80% in assay [5] (20 g/ha); 0% in assay [2] (10 g/ha). Besides, the “Phytotoxicity of herbicide alone” value in assay [6] (20 g/ha) was 60%; in assay [6] (30 g/ha), 90%; in assay [3] (20 g/ha) it was 20%; in assay [3] (30 g/ha), 30%; in assay [4] (20 g/ha), 50%.

Take `CC(C)N(C(=O)SCC(Cl)=C(Cl)Cl)C(C)C` [Triallate, triallate]: the “Phytotoxicity of herbicide alone” value in assay [1] (1500 g/ha) came to 50%; in the assay with Avena fatua (wild oats) (1500 g/ha) it was 65%; in assay [2] (1500 g/ha), 50%; in assay [6] (1500 g/ha), 10%; in assay [3] (1000 g/ha) it was 10%; in assay [4] (500 g/ha), 40%.

In the case of `CCOC(=O)[C@@H](C)Oc1ccc(Oc2nc3ccc(Cl)cc3o2)cc1` [fenoxaprop-P-ethyl], the “Synergistic effect on the weeds (observed higher than expected)” value with weeds was “synergized”.

imazamethabenz-methyl: the “Phytotoxicity of herbicide alone” value in assay [1] (300 g/ha) stood at 15%; in the assay with Avena fatua (wild oats) (100 g/ha), 30%; in assay [2] (300 g/ha), 60%; in assay [6] (300 g/ha), 5%; in assay [3] (100 g/ha), 10%; in assay [4] (200 g/ha), 0%. The “Phytotoxicity of herbicide alone” value in assay [4] (300 g/ha) stood at 10%.
